Test results published in ChEMBL document CHEMBL1201862, “PubChem BioAssay data set” (2004).
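Exposure lasted 48 hours, with cells grown in 96-well plates and compounds tested at five concentrations. Abbreviation: GI50, concentration required for 50% inhibition of growth.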 Active and inactive are the calls of the source. Cut-off read from the data, not from the text of the source: active = GI50 up to about 1.1 µM and inactive = higher.

Columns and labels:
Experiment in all cases: DTP human tumour cell line panel, 48 h
OVCAR-4 = tested on: OVCAR-4
SW-620 = tested on: SW-620
ACHN = tested on: ACHN
SK-OV-3 = tested on: SK-OV-3
K562 = tested on: K562
TK-10 = tested on: TK-10
786-0 = tested on: 786-0
HCT-116 = tested on: HCT-116
A498 = tested on: A498
HCT-15 = tested on: HCT-15
EKVX = tested on: EKVX
SF-295 = tested on: SF-295
MDA-N = tested on: MDA-N
SN12C = tested on: SN12C
OVCAR-8 = tested on: OVCAR-8
UO-31 = tested on: UO-31
SK-MEL-5 = tested on: SK-MEL-5
MCF7 = tested on: MCF7
SK-MEL-28 = tested on: SK-MEL-28
SF-268 = tested on: SF-268
RPMI-8226 = tested on: RPMI-8226
HCC 2998 = tested on: HCC 2998
HT-29 = tested on: HT-29
OVCAR-3 = tested on: OVCAR-3
NCI-H460 = tested on: NCI-H460
Hs-578T = tested on: Hs-578T
PC-3 = tested on: PC-3
NCI-H23 = tested on: NCI-H23
SR = tested on: SR
NCI/ADR-RES = tested on: NCI/ADR-RES
T47D = tested on: T47D
RXF 393 = tested on: RXF 393
U-251 = tested on: U-251
HOP-92 = tested on: HOP-92
HL-60 = tested on: HL-60
MDA-MB-231 = tested on: MDA-MB-231
LOX IMVI = tested on: LOX IMVI
MOLT-4 = tested on: MOLT-4
IGROV-1 = tested on: IGROV-1
CAKI-1 = tested on: CAKI-1
SF-539 = tested on: SF-539
SNB-19 = tested on: SNB-19
COLO 205 = tested on: COLO 205
HOP-62 = tested on: HOP-62
A549 = tested on: A549
Malme-3M = tested on: Malme-3M
SNB-75 = tested on: SNB-75
NCI-H226 = tested on: NCI-H226
BT-549 = tested on: BT-549
OVCAR-5 = tested on: OVCAR-5
DU-145 = tested on: DU-145
UACC-257 = tested on: UACC-257
M14 = tested on: M14
MDA-MB-435 = tested on: MDA-MB-435
NCI-H522 = tested on: NCI-H522
SK-MEL-2 = tested on: SK-MEL-2
CCRF-CEM = tested on: CCRF-CEM
UACC-62 = tested on: UACC-62
KM12 = tested on: KM12

Structure (SMILES): N#CCCN(CCC#N)CCN(CCN(CCC#N)CCC#N)CCN(CCC#N)CCC#N
- GI50 (OVCAR-4): > 100 µM (inactive)
- GI50 (SW-620): > 100 µM (inactive)
- GI50 (ACHN): > 100 µM (inactive)
- GI50 (SK-OV-3): > 100 µM (inactive)
- GI50 (K562): > 100 µM (inactive)
- GI50 (TK-10): > 100 µM (inactive)
- GI50 (786-0): > 100 µM (inactive)
- GI50 (HCT-116): > 100 µM (inactive)
- GI50 (A498): > 100 µM (inactive)
- GI50 (HCT-15): > 100 µM
- GI50 (EKVX): > 100 µM (inactive)
- GI50 (SF-295): > 100 µM (inactive)
- GI50 (MDA-N): > 100 µM (inactive)
- GI50 (SN12C): > 100 µM (inactive)
- GI50 (OVCAR-8): > 100 µM (inactive)
- GI50 (UO-31): > 100 µM (inactive)
- GI50 (SK-MEL-5): > 100 µM (inactive)
- GI50 (MCF7): > 100 µM (inactive)
- GI50 (SK-MEL-28): > 100 µM (inactive)
- GI50 (SF-268): > 100 µM (inactive)
- GI50 (RPMI-8226): > 100 µM (inactive)
- GI50 (HCC 2998): > 100 µM (inactive)
- GI50 (HT-29): > 100 µM (inactive)
- GI50 (OVCAR-3): > 100 µM (inactive)
- GI50 (NCI-H460): > 100 µM (inactive)
- GI50 (Hs-578T): > 100 µM (inactive)
- GI50 (PC-3): > 100 µM (inactive)
- GI50 (NCI-H23): > 100 µM (inactive)
- GI50 (SR): > 100 µM (inactive)
- GI50 (NCI/ADR-RES): > 100 µM (inactive)
- GI50 (T47D): > 100 µM (inactive)
- GI50 (RXF 393): > 100 µM (inactive)
- GI50 (U-251): > 100 µM (inactive)
- GI50 (HOP-92): > 100 µM (inactive)
- GI50 (HL-60): > 100 µM (inactive)
- GI50 (MDA-MB-231): > 100 µM (inactive)
- GI50 (LOX IMVI): > 100 µM (inactive)
- GI50 (MOLT-4): > 100 µM (inactive)
- GI50 (IGROV-1): > 100 µM (inactive)
- GI50 (CAKI-1): > 100 µM (inactive)
- GI50 (SF-539): > 100 µM (inactive)
- GI50 (SNB-19): > 100 µM (inactive)
- GI50 (COLO 205): > 100 µM (inactive)
- GI50 (HOP-62): > 100 µM (inactive)
- GI50 (A549): > 100 µM (inactive)
- GI50 (Malme-3M): > 100 µM (inactive)
- GI50 (SNB-75): > 100 µM (inactive)
- GI50 (NCI-H226): > 100 µM (inactive)
- GI50 (BT-549): > 100 µM (inactive)
- GI50 (OVCAR-5): > 100 µM (inactive)
- GI50 (DU-145): > 100 µM (inactive)
- GI50 (UACC-257): > 100 µM (inactive)
- GI50 (M14): > 100 µM (inactive)
- GI50 (MDA-MB-435): > 100 µM (inactive)
- GI50 (NCI-H522): > 100 µM (inactive)
- GI50 (SK-MEL-2): > 100 µM (inactive)

Structure (SMILES): COC(=O)/C=C/c1ccc2c(c1)CC1(C2)Cc2cc3c(cc2C1=O)CCC3 (centres undefined)
- GI50 (OVCAR-4): 43.2 µM (inactive)
- GI50 (SW-620): > 100 µM (inactive)
- GI50 (ACHN): 39.5 µM (inactive)
- GI50 (K562): > 100 µM (inactive)
- GI50 (TK-10): 57.3 µM (inactive)
- GI50 (786-0): 27 µM (inactive)
- GI50 (HCT-116): 15.7 µM (inactive)
- GI50 (A498): > 100 µM (inactive)
- GI50 (HCT-15): > 100 µM
- GI50 (EKVX): 55.6 µM (inactive)
- GI50 (SF-295): 34.1 µM (inactive)
- GI50 (MDA-N): > 100 µM (inactive)
- GI50 (SN12C): > 100 µM (inactive)
- GI50 (OVCAR-8): 25.1 µM (inactive)
- GI50 (UO-31): 50.8 µM (inactive)
- GI50 (SK-MEL-5): 74.8 µM (inactive)
- GI50 (CCRF-CEM): > 100 µM (inactive)
- GI50 (MCF7): > 100 µM (inactive)
- GI50 (SK-MEL-28): > 100 µM (inactive)
- GI50 (SF-268): 46.2 µM (inactive)
- GI50 (RPMI-8226): 15 µM (inactive)
- GI50 (HCC 2998): > 100 µM (inactive)
- GI50 (OVCAR-3): 4.63 µM (inactive)
- GI50 (NCI-H460): 80.9 µM (inactive)
- GI50 (Hs-578T): 25.2 µM (inactive)
- GI50 (PC-3): 88.9 µM (inactive)
- GI50 (SR): 44.1 µM (inactive)
- GI50 (NCI/ADR-RES): 42.5 µM (inactive)
- GI50 (T47D): 11.1 µM (inactive)
- GI50 (RXF 393): 24.5 µM (inactive)
- GI50 (U-251): 26.5 µM (inactive)
- GI50 (HOP-92): 35.3 µM (inactive)
- GI50 (HL-60): 7.98 µM (inactive)
- GI50 (MDA-MB-231): 39 µM (inactive)
- GI50 (LOX IMVI): > 100 µM (inactive)
- GI50 (MOLT-4): > 100 µM (inactive)
- GI50 (IGROV-1): 24.3 µM (inactive)
- GI50 (CAKI-1): 36.2 µM (inactive)
- GI50 (SF-539): 31 µM (inactive)
- GI50 (UACC-62): > 100 µM (inactive)
- GI50 (SNB-19): 31.6 µM (inactive)
- GI50 (COLO 205): > 100 µM (inactive)
- GI50 (A549): 40.3 µM (inactive)
- GI50 (Malme-3M): 42 µM (inactive)
- GI50 (SNB-75): 24.9 µM (inactive)
- GI50 (NCI-H226): 49.3 µM (inactive)
- GI50 (BT-549): > 100 µM (inactive)
- GI50 (KM12): 56.8 µM (inactive)
- GI50 (DU-145): > 100 µM (inactive)
- GI50 (UACC-257): > 100 µM (inactive)
- GI50 (M14): 47 µM (inactive)
- GI50 (MDA-MB-435): > 100 µM (inactive)
- GI50 (NCI-H522): 31.1 µM (inactive)
- GI50 (SK-MEL-2): > 100 µM (inactive)

Structure (SMILES): CCOc1cc(NC(C)=O)ccc1C(=O)N/N=C/c1ccco1
- GI50 (OVCAR-4): > 100 µM (inactive)
- GI50 (SW-620): > 100 µM (inactive)
- GI50 (ACHN): 35.6 µM (inactive)
- GI50 (SK-OV-3): > 100 µM (inactive)
- GI50 (K562): 4.05 µM (inactive)
- GI50 (TK-10): > 100 µM (inactive)
- GI50 (786-0): > 100 µM (inactive)
- GI50 (HCT-116): > 100 µM (inactive)
- GI50 (A498): 62.8 µM (inactive)
- GI50 (HCT-15): > 100 µM
- GI50 (EKVX): > 100 µM (inactive)
- GI50 (SF-295): > 100 µM (inactive)
- GI50 (MDA-N): > 100 µM (inactive)
- GI50 (SN12C): > 100 µM (inactive)
- GI50 (OVCAR-8): > 100 µM (inactive)
- GI50 (SK-MEL-5): > 100 µM (inactive)
- GI50 (CCRF-CEM): 39.3 µM (inactive)
- GI50 (MCF7): 22.3 µM (inactive)
- GI50 (SK-MEL-28): > 100 µM (inactive)
- GI50 (SF-268): > 100 µM (inactive)
- GI50 (RPMI-8226): 78.3 µM (inactive)
- GI50 (HCC 2998): > 100 µM (inactive)
- GI50 (HT-29): > 100 µM (inactive)
- GI50 (OVCAR-3): > 100 µM (inactive)
- GI50 (NCI-H460): 24.5 µM (inactive)
- GI50 (Hs-578T): > 100 µM (inactive)
- GI50 (PC-3): > 100 µM (inactive)
- GI50 (NCI-H23): > 100 µM (inactive)
- GI50 (SR): 9.95 µM (inactive)
- GI50 (NCI/ADR-RES): > 100 µM (inactive)
- GI50 (T47D): > 100 µM (inactive)
- GI50 (RXF 393): > 100 µM (inactive)
- GI50 (HOP-92): 11.8 µM (inactive)
- GI50 (HL-60): 27.9 µM (inactive)
- GI50 (MDA-MB-231): > 100 µM (inactive)
- GI50 (LOX IMVI): 38.4 µM (inactive)
- GI50 (MOLT-4): 20.9 µM (inactive)
- GI50 (IGROV-1): 94 µM (inactive)
- GI50 (CAKI-1): 76.6 µM (inactive)
- GI50 (SF-539): 89.7 µM (inactive)
- GI50 (UACC-62): 77.3 µM (inactive)
- GI50 (COLO 205): 44.6 µM (inactive)
- GI50 (HOP-62): > 100 µM (inactive)
- GI50 (Malme-3M): > 100 µM (inactive)
- GI50 (SNB-75): > 100 µM (inactive)
- GI50 (NCI-H226): > 100 µM (inactive)
- GI50 (BT-549): > 100 µM (inactive)
- GI50 (OVCAR-5): > 100 µM (inactive)
- GI50 (KM12): > 100 µM (inactive)
- GI50 (DU-145): > 100 µM (inactive)
- GI50 (UACC-257): > 100 µM (inactive)
- GI50 (MDA-MB-435): > 100 µM (inactive)
- GI50 (NCI-H522): > 100 µM (inactive)
- GI50 (SK-MEL-2): > 100 µM (inactive)
